Read-outs that look alike come from different tables or passages of the source.
Experiments:
[1] = biological target: T1, type 1 human 5α-reductase (HRED1) (Homo sapiens, UniProt P18405); assay: Cell free assay of 5α-reductase, microsomes of rat 1A cells expressing type 1 isoenzyme (HRED1); format: biochemical; parameters: expressed in transfected cells; host or cells: rat 1A cells infected with pMV7 retrovirus; microsomes;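 note: microsomes from rat 1A cells expressing human type 1 5α-reductase, conversion of radiolabeled testosterone to dihydrotestosterone quantified by thin layer chromatography with radioanalytic scanning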
T1 sequence (P18405 1-259): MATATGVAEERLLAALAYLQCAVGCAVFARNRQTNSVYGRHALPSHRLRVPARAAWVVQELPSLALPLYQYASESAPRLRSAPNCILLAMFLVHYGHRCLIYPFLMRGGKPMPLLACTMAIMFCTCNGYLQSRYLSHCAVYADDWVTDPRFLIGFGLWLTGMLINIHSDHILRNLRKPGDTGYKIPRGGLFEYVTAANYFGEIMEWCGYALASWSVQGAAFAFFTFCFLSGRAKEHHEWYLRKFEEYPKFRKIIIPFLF

[2] = biological target: T2, type 2 human 5α-reductase (HRED2) (Homo sapiens, UniProt P31213); assay: Cell free assay of 5α-reductase, microsomes of rat 1A cells expressing type 2 isoenzyme (HRED2); format: biochemical; parameters: expressed in transfected cells; host or cells: rat 1A cells infected with pMV7 retrovirus; microsomes;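 note: labeled testosterone and its product dihydrotestosterone measured in microsomal reaction extracts via thin layer chromatography plus radioanalytic scanning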
T2 sequence (P31213 1-254): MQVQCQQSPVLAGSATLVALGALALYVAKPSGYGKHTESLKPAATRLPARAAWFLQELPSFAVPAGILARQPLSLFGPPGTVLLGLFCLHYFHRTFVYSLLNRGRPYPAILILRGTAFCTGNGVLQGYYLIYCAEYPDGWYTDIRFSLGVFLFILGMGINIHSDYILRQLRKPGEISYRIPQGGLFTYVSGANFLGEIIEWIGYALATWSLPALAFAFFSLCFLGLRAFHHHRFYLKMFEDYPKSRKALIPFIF

[3] = biological target: T1, type 1 human 5α-reductase (HRED1); assay: Whole cell assay of 5α-reductase, type 1 isoenzyme; format: cell-based; parameters: expressed in transfected cells; host or cells: rat 1A cells infected with pMV7 retrovirus; conditions: whole cell assay;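 note: intact rat 1A cells engineered to express the human type 1 5α-reductase isozyme serve as the enzyme source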
[4] = cell-free assay, read-out: IC50, type 1 isoenzyme
[5] = cell-free assay, read-out: IC50, type 2 isoenzyme
[6] = 100 uM, cell free assay, Table 1, read-out: HRED1 % Inhibition @ 100 uM
[7] = cell free assay, Table 1 flavanoids, read-out: HRED1 IC50
[8] = 100 uM, cell free assay, Table 1, read-out: HRED2 % Inhibition @ 100 uM
[9] = cell free assay, Table 1 flavanoids, read-out: HRED2 IC50
[10] = cell free assay, Table 2 catechols, read-out: HRED1 IC50
[11] = cell free assay, Table 2 catechols, read-out: HRED2 IC50
[12] = 100 μM, cell free assay, Table 5
[13] = cell free assay, Table 5 epigallocatechin derivatives, read-out: HRED1 IC50
[14] = cell free assay, Table 5 epigallocatechin derivatives, read-out: HRED2 IC50
[15] = 100 uM, cell free assay, Table 2
[16] = 100 μM, cell free assay, Table 4, read-out: HRED1 % Inhibition @ 100 μM
[17] = cell free assay, Table 4 quinones, read-out: HRED1 IC50
[18] = 100 μM, cell free assay, Table 4, read-out: HRED2 % Inhibition @ 100 μM
[19] = cell free assay, Table 4 quinones, read-out: HRED2 IC50
[20] = 100 μM, cell free assay, Table 4

Q: What does the source list for COc1cc(/C=C/C(=O)O)ccc1O [Ferulic Acid]?
A: inhibition at 100 µM ([1]; 100 uM, cell free assay, Table 3, read-out: HRED1 % Inhibition @ 100 uM): 0%; IC50 ([1]; cell free assay, Table 3 curcumin and related compounds, read-out: HRED1 IC50): > 100 µM; IC50 [1, 4]: > 100 µM; inhibition at 100 µM ([2]; 100 uM, cell free assay, Table 3, read-out: HRED2 % Inhibition @ 100 uM): 18%; IC50 ([2]; cell free assay, Table 3 curcumin and related compounds, read-out: HRED2 IC50): > 100 µM; IC50 [2, 5]: > 100 µM

Q: What does the source list for O=c1cc(-c2ccccc2)oc2ccccc12 [Flavone]?
A: inhibition at 100 µM [1, 6]: 20%; IC50 [1, 7]: > 100 µM; inhibition at 100 µM [2, 8]: -52%; IC50 [2, 9]: > 100 µM

Q: Which results are given for COc1cc2ccc(=O)oc2c(O)c1O [Fraxetin]?
A: IC50 [1, 10]: > 100 µM; IC50 [2, 11]: > 100 µM

Q: For O=C(OC1Cc2c(O)cc(O)cc2OC1c1cc(O)c(O)c(O)c1)c1ccccc1 (stereo not drawn) [HZIV 74], which “HRED1 % Inhibition @ 100 μM” value [1, 12] is on record?
A: 85%

Q: What about the IC50 [1, 13] of the same molecule?
A: 48 µM

Q: What about the “HRED2 % Inhibition @ 100 μM” value [2, 12] of the same molecule?
A: 24%

Q: What about the IC50 [2, 14] of the same molecule?
A: > 100 µM

Q: For O=C(O)OC1Cc2c(O)cc(O)cc2OC1c1cc(O)c(O)c(O)c1 (stereo not drawn) [HZIV 109], which “HRED1 % Inhibition @ 100 μM” value [1, 12] is on record?
A: 17%

Q: What about the IC50 [1, 13] of the same molecule?
A: > 100 µM

Q: And the “HRED2 % Inhibition @ 100 μM” value [2, 12]?
A: 0%

Q: And the IC50 [2, 14]?
A: > 100 µM

Q: How did the “HRED1 % Inhibition @ 100 μM” value [1, 12] turn out when O=C(C=Cc1cc(O)c(O)c(O)c1)OC1Cc2c(O)cc(O)cc2OC1c1cc(O)c(O)c(O)c1 (stereo not drawn) [HZIV 134] was run?
A: 99%

Q: And the IC50 [1, 13]?
A: 20 µM

Q: What about the “HRED2 % Inhibition @ 100 μM” value [2, 12] of the same molecule?
A: 94%

Q: What about the IC50 [2, 14] of the same molecule?
A: 67 µM

Q: Which results are given for O=C(NCCc1cc(O)c(O)c(O)c1)c1cc(O)c(O)c(O)c1 [HZIV 275]?
A: HRED1 % Inhibition @ 100 uM [1, 15]: 10%; IC50 [1, 10]: > 100 µM; HRED2 % Inhibition @ 100 uM [2, 15]: 6%; IC50 [2, 11]: > 100 µM

Q: With Oc1cc2c(cc1O)[C@@H]1c3ccc(O)c(O)c3OC[C@]1(O)C2 [Hematoxylin] as the molecule, how does the inhibition at 100 µM ([1]; 100 uM, cell free assay, Table 2, read-out: HRED1 % Inhibition @ 100 uM) read?
A: 59%

Q: What about the IC50 [1, 10] of the same molecule?
A: 83 µM

Q: What about the inhibition at 100 µM ([2]; 100 uM, cell free assay, Table 2, read-out: HRED2 % Inhibition @ 100 uM) of the same molecule?
A: 38%

Q: And the IC50 [2, 11]?
A: > 100 µM

Q: Which “HRED2 % Inhibition @ 100 uM” value [2, 15] does the source give for NCCc1cc(O)c(O)c(O)c1 [Hydroxydopamine] here?
A: 41%

Q: Which inhibition at 100 µM [1, 16] does the source give for CC(C)=CCC1=C(O)C(=O)c2ccccc2C1=O [Lapachol] here?
A: 30%

Q: And the IC50 [1, 17]?
A: > 100 µM

Q: And the inhibition at 100 µM [2, 18]?
A: 9%

Q: And the IC50 [2, 19]?
A: > 100 µM

Q: What does the source list for O=c1c(O)c(-c2ccc(O)cc2O)oc2cc(O)cc(O)c12 [Morin]?
A: IC50 [1, 7]: > 100 µM; IC50 [2, 9]: > 100 µM

Q: How did the “HRED2 % Inhibition @ 100 uM” value [2, 15] turn out when CC(Cc1ccc(O)c(O)c1)C(C)Cc1ccc(O)c(O)c1 (stereo not drawn) [Nordihydrogaiaretic Acid, Nordihydroguaiaretic acid] was run?
A: 80%

Q: What about the “inhibitory activity in the whole cell assay, type 1 isoenzyme, in words” value [3] of the same molecule?
A: active

Q: Which IC50 [1, 10] does the source give for O=c1c(O)cccc2cc(O)c(O)c(O)c12 [Purpurogallin] here?
A: 30 µM

Q: What about the IC50 [2, 11] of the same molecule?
A: > 100 µM

Q: O=c1ccc2c(-c3ccccc3S(=O)(=O)O)c3ccc(O)c(O)c3oc-2c1O [Pyrogallol Red] was tested. Which IC50 [1, 10] did it give?
A: 15 µM

Q: What about the IC50 [2, 11] of the same molecule?
A: > 100 µM

Q: O=C1c2ccccc2C(=O)c2c(O)ccc(O)c21 [Quinizarin] was tested. Which inhibition at 100 µM [1, 16] did it give?
A: 26%

Q: And the IC50 [1, 17]?
A: > 100 µM

Q: And the inhibition at 100 µM [2, 18]?
A: 7%

Q: And the IC50 [2, 19]?
A: > 100 µM

Q: With C[C@@H]1O[C@@H](OC[C@H]2O[C@@H](Oc3c(-c4ccc(O)c(O)c4)oc4cc(O)cc(O)c4c3=O)[C@H](O)[C@@H](O)[C@@H]2O)[C@H](O)[C@H](O)[C@H]1O [Rutin] as the molecule, how does the IC50 [1, 7] read?
A: > 100 µM

Q: And the IC50 [1, 4]?
A: > 100 µM

Q: What about the IC50 [2, 9] of the same molecule?
A: > 100 µM

Q: And the IC50 ([2]; read-out: IC50, type 2 isoenzyme)?
A: > 100 µM

Q: With CC(C)(C)c1cc(O)ccc1O [T-butylhydroxyquinone] as the molecule, how does the “HRED1 % Inhibition @ 100 μM” value [1, 20] read?
A: 19%

Q: And the IC50 [1, 17]?
A: > 100 µM

Q: What about the “HRED2 % Inhibition @ 100 μM” value [2, 20] of the same molecule?
A: 4%

Q: What about the IC50 [2, 19] of the same molecule?
A: > 100 µM

Q: Which inhibition at 100 µM [1, 6] does the source give for O=C1c2c(O)cc(O)cc2O[C@H](c2ccc(O)c(O)c2)[C@H]1O [Taxifolin] here?
A: 5%

Q: And the IC50 [1, 7]?
A: > 100 µM

Q: And the IC50 [1, 4]?
A: > 100 µM

Q: What about the inhibition at 100 µM [2, 8] of the same molecule?
A: 5%

Q: What about the IC50 [2, 9] of the same molecule?
A: > 100 µM

Q: What about the IC50 [2, 5] of the same molecule?
A: > 100 µM
